What was measured:
Assay type in all cases: biochemical
JAK1 = target: T1, JAK1 (Homo sapiens, UniProt P23458); assay: Z'-LYTE kinase assay JAK1
T1 construct: 5 μl of catalytic domain recombinant Kinase enzyme+Tyr peptide substrate (Invitrogen, CA); purchased Invitrogen
Method in brief: (§1)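 Z′-LYTE FRET, Tyr6 peptide, recombinant catalytic domain + ATP, 1 h RT, 1% DMSO final, duplicates; protease development 1 h RT; fluorescence read.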

JAK2 = target: T2, JAK2 (Homo sapiens, UniProt O60674); assay: Z'-LYTE kinase assay JAK2
T2 construct: 5 μl of catalytic domain recombinant Kinase enzyme+Tyr peptide substrate (Invitrogen, CA); purchased Invitrogen
T2 sequence (O60674 849-1124 limits assumed): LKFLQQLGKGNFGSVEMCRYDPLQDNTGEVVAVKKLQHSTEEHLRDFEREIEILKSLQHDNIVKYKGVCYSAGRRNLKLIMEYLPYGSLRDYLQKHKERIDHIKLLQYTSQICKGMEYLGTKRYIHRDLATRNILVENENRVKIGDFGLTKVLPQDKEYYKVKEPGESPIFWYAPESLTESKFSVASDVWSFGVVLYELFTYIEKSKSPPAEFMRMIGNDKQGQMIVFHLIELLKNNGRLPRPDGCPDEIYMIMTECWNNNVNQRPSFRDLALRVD
Method in brief: as §1

JAK3 = target: T3, JAK3 (Homo sapiens, UniProt P52333); assay: Z'-LYTE kinase assay JAK3
T3 construct: 5 μl of catalytic domain recombinant Kinase enzyme+Tyr peptide substrate (Invitrogen, CA); purchased Invitrogen
T3 sequence (P52333 822-1111 limits assumed): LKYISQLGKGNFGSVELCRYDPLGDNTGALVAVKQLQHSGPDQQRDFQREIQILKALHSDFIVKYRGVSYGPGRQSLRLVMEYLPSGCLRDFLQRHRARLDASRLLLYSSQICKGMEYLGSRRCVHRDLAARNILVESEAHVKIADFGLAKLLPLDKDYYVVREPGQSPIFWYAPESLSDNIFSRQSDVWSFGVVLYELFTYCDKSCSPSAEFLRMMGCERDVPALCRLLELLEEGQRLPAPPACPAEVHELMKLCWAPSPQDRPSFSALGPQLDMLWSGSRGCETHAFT
Method in brief: as §1

T1 sequence (P23458 875-1153 limits assumed): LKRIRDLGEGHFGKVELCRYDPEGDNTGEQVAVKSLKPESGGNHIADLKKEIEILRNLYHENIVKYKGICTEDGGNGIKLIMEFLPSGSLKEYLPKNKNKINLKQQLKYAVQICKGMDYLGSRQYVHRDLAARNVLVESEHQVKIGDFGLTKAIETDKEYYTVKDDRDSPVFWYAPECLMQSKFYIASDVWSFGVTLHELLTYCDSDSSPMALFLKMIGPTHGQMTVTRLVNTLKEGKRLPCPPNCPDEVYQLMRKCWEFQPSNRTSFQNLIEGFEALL

| Compound | IC50 (JAK1) | IC50 (JAK2) | IC50 (JAK3) |
| --- | --- | --- | --- |
| CN(C(=O)C1CC1)c1ccc(Nc2cc(NCc3cccc4[nH]ccc34)c(C(N)=O)cn2)cc1 [Example 476, 4-((1H-indol-4-yl)methylamino)-6-(4-(N-methylcyclopropanecarboxamido)phenylamino)nicotinamide] | 10 to 100 nM | 10 to 100 nM | 1 to 10 nM |
| CN(C(=O)C1CC1)c1ccc(Nc2cc(NCc3cccc4cc[nH]c34)c(C(N)=O)cn2)cc1 [Example 478, 4-((1H-indol-7-yl)methylamino)-6-(4-(N-methylcyclopropanecarboxamido)phenylamino)nicotinamide] | > 1000 nM | 100 to 1000 nM | 100 to 1000 nM |
| CCC(=O)N(C)c1ccc(Nc2cc(NCc3cncc(F)c3)c(C(N)=O)cn2)cc1 [Example 480, 4-((5-fluoropyridin-3-yl)methylamino)-6-(4-(N-methylpropionamido)phenylamino)nicotinamide] | > 1000 nM | 100 to 1000 nM | 10 to 100 nM |
| CC(=O)N(C)c1ccc(Nc2cc(NCc3cncc(F)c3)c(C(N)=O)cn2)cc1 [Example 483, 4-((5-fluoropyridin-3-yl)methylamino)-6-(4-(N-methylacetamido)phenylamino)nicotinamide] | > 1000 nM | 100 to 1000 nM | 10 to 100 nM |
| CC(=O)N(C)c1ccc(Nc2cc(NCc3cccc(F)n3)c(C(N)=O)cn2)cc1 [Example 485, 4-((6-fluoropyridin-2-yl)methylamino)-6-(4-(N-methylacetamido)phenylamino)nicotinamide] | > 1000 nM | 100 to 1000 nM | 10 to 100 nM |
| CC(=O)Nc1ccc(Nc2cc(NCc3cccc(F)n3)c(C(N)=O)cn2)cc1 [Example 486, 6-(4-acetamidophenylamino)-4-((6-fluoropyridin-2-yl)methylamino)nicotinamide] | 100 to 1000 nM | 100 to 1000 nM | 10 to 100 nM |
| COC(=O)N(C)c1ccc(Nc2cc(NCc3cccc(F)n3)c(C(N)=O)cn2)cc1 [Example 487] | 100 to 1000 nM | 100 to 1000 nM | 10 to 100 nM |

Continued, values first:

| IC50 (JAK1) | IC50 (JAK2) | IC50 (JAK3) | Compound |
| --- | --- | --- | --- |
| > 1000 nM | 100 to 1000 nM | 10 to 100 nM | CCC(=O)N(C)c1ccc(Nc2cc(NCc3cccc4cc[nH]c34)c(C(N)=O)cn2)cc1 [Example 477, 4-((1H-indol-7-yl)methylamino)-6-(4-(N-methylpropionamido)phenylamino)nicotinamide] |
| 100 to 1000 nM | 100 to 1000 nM | 10 to 100 nM | COC(=O)N(C)c1ccc(Nc2cc(NCc3cncc(F)c3)c(C(N)=O)cn2)cc1 [Example 479] |
| 100 to 1000 nM | 100 to 1000 nM | 10 to 100 nM | CN(C(=O)C1CC1)c1ccc(Nc2cc(NCc3cncc(F)c3)c(C(N)=O)cn2)cc1 [Example 481, 4-((5-fluoropyridin-3-yl)methylamino)-6-(4-(N-methylcyclopropanecarboxamido)phenylamino)nicotinamide] |
| > 1000 nM | > 1000 nM | 10 to 100 nM | COC(=O)N(C)c1ccc(Nc2cc(NCc3cccc4cc[nH]c34)c(C(N)=O)cn2)cc1 [Example 482, methyl 4-(4-((1H-indol-7-yl)methylamino)-5-carbamoylpyridin-2-ylamino)phenyl(methyl)carbamate] |
| 100 to 1000 nM | 100 to 1000 nM | 1 to 10 nM | CC(=O)Nc1ccc(Nc2cc(NCc3cncc(F)c3)c(C(N)=O)cn2)cc1 [Example 484, 6-(4-acetamidophenylamino)-4-((5-fluoropyridin-3-yl)methylamino)nicotinamide] |
| 100 to 1000 nM | 100 to 1000 nM | 10 to 100 nM | CCC(=O)N(C)c1ccc(Nc2cc(NCc3cccc(F)n3)c(C(N)=O)cn2)cc1 [Example 488, 4-((6-fluoropyridin-2-yl)methylamino)-6-(4-(N-methylpropionamido)phenylamino)nicotinamide] |
| 100 to 1000 nM | 100 to 1000 nM | 10 to 100 nM | CN(C(=O)C1CC1)c1ccc(Nc2cc(NCc3cccc(F)n3)c(C(N)=O)cn2)cc1 [Example 489, 4-((6-fluoropyridin-2-yl)methylamino)-6-(4-(N-methylcyclopropanecarboxamido)phenylamino)nicotinamide] |
